# In patent publication US8796460B2, “Compounds for inhibiting KSP kinesin activity” (Mercky Sharp & Dohme Corp., priority 2007, dated 2014):
# System: HCT116 colon cancer cells
# Experiment: KSP Cellular Assay (percent of cells staining positive for Phos-Histone H3 / Phos-MPM2)
# Assay type: cell-based
# Conditions: Homo sapiens, HCT-116, 16 h, table of Example 1801 (headed Table 1201); HCT116 cells, 16 hours with drug; read-out: EC50 (nM) Range
# How it was run: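 HCT116 cells treated with compound for 16 hours, fixed and stained with Hoechst plus Phos-Histone H3 (ser10) and Phos-MPM2 antibodies. Percent positive cells from immunofluorescence imaging; EC50 by sigmoidal nonlinear regression over 8-point dilutions in duplicate.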
row,EC50 [nM],SMILES
1,> 1000,CC(=O)N1N=C(c2ccccc2F)S[C@]12c1ccccc1OC[C@@H]2CCN [compound 1804]
2,> 1000,CC(=O)N1N=C(c2cc(Cl)ccc2F)S[C@]12c1ccccc1OC[C@@H]2CCN [compound 1805]
3,≤ 500,CC(=O)N1N=C(c2cc(C(F)(F)F)ccc2F)S[C@@]12c1ccccc1OC[C@H]2CCN [compound 1806]
4,> 1000,CC(=O)N1N=C(c2cc(C(F)(F)F)ccc2F)S[C@]12c1ccccc1OC[C@@H]2CCN [compound 1807]
5,≤ 500,CC(=O)N1N=C(c2ccccc2)S[C@@]12c1ccccc1OC[C@H]2CCN [compound 1808]
6,> 1000,CC(=O)N1N=C(c2ccccc2)S[C@]12c1ccccc1OC[C@@H]2CCN [compound 1809]
7,≤ 500,CC(=O)N1N=C(c2cccc(F)c2)S[C@@]12c1ccccc1OC[C@H]2CCN [compound 1810]
8,> 1000,CC(=O)N1N=C(c2cccc(F)c2)S[C@]12c1ccccc1OC[C@@H]2CCN [compound 1811]
9,≤ 500,CC(=O)N1N=C(c2cccc(Cl)c2)S[C@@]12c1ccccc1OC[C@H]2CCN [compound 1812]
10,> 1000,CC(=O)N1N=C(c2cccc(Cl)c2)S[C@]12c1ccccc1OC[C@@H]2CCN [compound 1813]
11,≤ 500,CC(=O)N1N=C(c2cccc(C(F)(F)F)c2)S[C@@]12c1ccccc1OC[C@H]2CCN [compound 1814]
12,≤ 500,CC(=O)N1N=C(c2cc(F)cc(F)c2)S[C@@]12c1ccccc1OC[C@H]2CCN [compound 1815]
13,> 1000,CC(=O)N1N=C(c2ccc(F)cc2F)S[C@]12c1ccccc1OC[C@@H]2CCN [compound 1816]
14,> 1000,CC(=O)N1N=C(c2cccc(C(F)(F)F)c2)S[C@]12c1ccccc1OC[C@@H]2CCN [compound 1817]
15,> 1000,CC(=O)N1N=C(c2cc(F)cc(F)c2)S[C@]12c1ccccc1OC[C@@H]2CCN [compound 1818]
16,≤ 500,CC(=O)N1N=C(c2ccc(F)cc2F)S[C@@]12c1cc(F)ccc1OC[C@H]2CCN [compound 1819]
17,≤ 500,CC(=O)N1N=C(c2ccc(F)c(F)c2)S[C@@]12c1cc(F)ccc1OC[C@H]2CCN [compound 1820]
18,≤ 500,CC(=O)N1N=C(c2cc(F)cc(F)c2)S[C@@]12c1cc(F)ccc1OC[C@H]2CCN [compound 1821]
19,> 1000,CC(=O)N1N=C(c2ccc(F)cc2F)S[C@]12c1cc(F)ccc1OC[C@@H]2CCN [compound 1822]
20,> 1000,CC(=O)N1N=C(c2ccc(F)c(F)c2)S[C@]12c1cc(F)ccc1OC[C@@H]2CCN [compound 1823]
21,> 1000,CC(=O)N1N=C(c2cc(F)cc(F)c2)S[C@]12c1cc(F)ccc1OC[C@@H]2CCN [compound 1824]

# Same assay, conditions: Homo sapiens, HCT-116, 16 h, table of Example 1901; HCT116 cells, 16 hours with drug; read-out: EC50 (nM) Range
row,EC50 [nM],SMILES
1,≤ 500,CO[C@@H](C)C(=O)N1N=C(c2cc(F)ccc2F)S[C@@]12c1cc(F)ccc1OC[C@H]2CCN [compound 1902]
2,> 1000,CO[C@H](C)C(=O)N1N=C(c2cc(F)ccc2F)S[C@]12c1cc(F)ccc1OC[C@@H]2CCN [compound 1903]
3,≤ 500,CO[C@H](C)C(=O)N1N=C(c2cc(F)ccc2F)S[C@@]12c1cc(F)ccc1OC[C@H]2CCN [compound 1904]
4,> 1000,COCCOCC(=O)N1N=C(c2cc(F)ccc2F)S[C@]12c1cc(F)ccc1OC[C@@H]2CCN [compound 1905]
5,≤ 500,COCCOCC(=O)N1N=C(c2cc(F)ccc2F)S[C@@]12c1cc(F)ccc1OC[C@H]2CCN [compound 1906]
6,≤ 500,CO[C@@H](C)C(=O)N1N=C(c2cc(F)ccc2F)S[C@@]12c1cc(F)cc(F)c1OC[C@H]2CCN [compound 1907]
7,> 1000,CO[C@@H](C)C(=O)N1N=C(c2cc(F)ccc2F)S[C@]12c1cc(F)cc(F)c1OC[C@@H]2CCN [compound 1908]
8,≤ 500,COCCOCC(=O)N1N=C(c2cc(F)ccc2F)S[C@@]12c1ccccc1OC[C@H]2CCN [compound 1909]
9,> 1000,COCCOCC(=O)N1N=C(c2cc(F)ccc2F)S[C@]12c1ccccc1OC[C@@H]2CCN [compound 1910]
10,≤ 500,COCCOCC(=O)N1N=C(c2cc(F)ccc2F)S[C@@]12c1cc(F)cc(F)c1OC[C@H]2CCN [compound 1911]
11,> 1000,COCCOCC(=O)N1N=C(c2cc(F)ccc2F)S[C@]12c1cc(F)cc(F)c1OC[C@@H]2CCN [compound 1912]

# Same assay, conditions: Homo sapiens, HCT-116, 16 h, table of Example 2001; HCT116 cells, 16 hours with drug; read-out: EC50 (nM) Range
row,SMILES,EC50 [nM]
1,COCC(=O)N1N=C(c2cc(F)ccc2F)S[C@]12c1ccccc1OC[C@@H]2CCN [compound 2003],≤ 500
2,COCC(=O)N1N=C(c2cc(F)ccc2F)S[C@@]12c1ccccc1OC[C@H]2CCN [compound 2004],≤ 500
3,NCC[C@H]1COc2ccccc2[C@]12SC(c1cc(F)ccc1F)=NN2C(=O)C(F)F [compound 2005],≤ 500

# The remaining lines, values ahead:
row,EC50 [nM],SMILES
1,≤ 500,CO[C@@H](C)C(=O)N1N=C(c2cc(F)ccc2F)S[C@]12c1ccccc1OC[C@@H]2CCN [compound 2007]
2,≤ 500,CO[C@@H](C)C(=O)N1N=C(c2cc(F)ccc2F)S[C@@]12c1ccccc1OC[C@H]2CCN [compound 2008]

# Same assay, conditions: Homo sapiens, HCT-116, 16 h, table of Example 2101; HCT116 cells, 16 hours with drug; read-out: EC50 (nM) Range
row,EC50 [nM],SMILES
1,> 1000,CCOC(=O)N1N=C(c2cc(F)ccc2F)S[C@]12c1cc(F)ccc1OC[C@@H]2CCN [compound 2102]
2,> 1000,CCOC(=O)N1N=C(c2cc(F)ccc2F)S[C@@]12c1ccccc1OC[C@H]2CCN [compound 2103]
3,≤ 500,CCOC(=O)N1N=C(c2cc(F)ccc2F)S[C@]12c1ccccc1OC[C@@H]2CCN [compound 2104]

# Same assay, conditions: Homo sapiens, HCT-116, 16 h, table of Example 2201; HCT116 cells, 16 hours with drug; read-out: EC50 (nM) Range
row,EC50 [nM],SMILES
1,> 1000,CN(C)C(=O)N1N=C(c2cc(F)ccc2F)S[C@]12c1cc(F)ccc1OC[C@@H]2CCN [compound 2202]
2,≤ 500,CN(C)C(=O)N1N=C(c2cc(F)ccc2F)S[C@]12c1ccccc1OC[C@@H]2CCN [compound 2204]
3,> 1000,NCC[C@@H]1COc2ccccc2[C@@]12SC(c1cc(F)ccc1F)=NN2C(=O)N1CCOCC1 [compound 2205]
4,> 1000,NCC[C@H]1COc2ccccc2[C@]12SC(c1cc(F)ccc1F)=NN2C(=O)N1CCOCC1 [compound 2206]

# Same assay, conditions: Homo sapiens, HCT-116, 16 h, table of Example 2301; HCT116 cells, 16 hours with drug; read-out: EC50 (nM) Range
row,EC50 [nM],SMILES
1,≤ 500,CC(=O)N1N=C(c2cc(F)ccc2F)SC12c1ccccc1OCC2CCO (stereo not shown) [compound 2301]
2,> 1000,Fc1ccc(F)c(C2=NN3CCC4COc5ccccc5C43S2)c1 (stereo not shown) [compound 2302]

# Same assay, conditions: Homo sapiens, HCT-116, 16 h, table of Example 2401; HCT116 cells, 16 hours with drug; read-out: EC50 (nM) Range
row,EC50 [nM],SMILES
1,> 1000,CC(=O)N1N=C(c2cc(F)ccc2F)S[C@]12CCNc1ccccc12 [compound 2402]

# Same assay, conditions: Homo sapiens, HCT-116, 16 h, table of Example 2501; HCT116 cells, 16 hours with drug; read-out: EC50 (nM) Range
row,EC50 [nM],SMILES
1,≤ 500,CC(=O)N1N=C(c2cc(F)ccc2F)S[C@]12c1ccccc1NC[C@@H]2CCO [compound 2501]
2,≤ 500,CC(=O)N1N=C(c2cc(F)ccc2F)S[C@@]12c1ccccc1NC[C@H]2CCO [compound 2502]

# Same assay, conditions: Homo sapiens, HCT-116, 16 h, table of Example 2701; HCT116 cells, 16 hours with drug; read-out: EC50 (nM) Range
row,EC50 [nM],SMILES
1,≤ 500,CC(=O)N1N=C(c2cc(F)ccc2F)S[C@]12c1ccccc1NC[C@H]2CCN [compound 2701]
2,500 to 1000,CC(=O)NCC[C@H]1CNc2ccccc2[C@]12SC(c1cc(F)ccc1F)=NN2C(C)=O [compound 2702]

# Same assay, conditions: Homo sapiens, HCT-116, 16 h, table of Example 2801; HCT116 cells, 16 hours with drug; read-out: EC50 (nM) Range
row,EC50 [nM],SMILES
1,≤ 500,CC(=O)N1N=C(c2cc(F)ccc2F)S[C@]12c1ccccc1NC[C@H]2CCN [compound 2801]

# Same assay, conditions: Homo sapiens, HCT-116, 16 h, table of Example 2901; HCT116 cells, 16 hours with drug; read-out: EC50 (nM) Range
row,EC50 [nM],SMILES
1,≤ 500,CC(=O)N1N=C(c2cc(F)ccc2F)S[C@@]12c1cc(F)ccc1NC[C@H]2CCN [compound 2902]
2,≤ 500,CC(=O)N1N=C(c2cc(F)ccc2F)S[C@]12c1cc(F)ccc1NC[C@H]2CCN [compound 2903]
3,> 1000,CC(=O)N1N=C(c2cc(F)ccc2F)S[C@]12c1cc(F)ccc1NC[C@@H]2CCN [compound 2904]

# Same assay, conditions: Homo sapiens, HCT-116; read-out: EC50 (nM) Range
row,EC50 [nM],SMILES
1,> 1000,Fc1ccc(F)c(C2=NN3CCC4CNc5ccccc5C43S2)c1 (stereo not shown) [compound 3101]

# Same assay, conditions: Homo sapiens, HCT-116; table of Example 2001; HCT116 cells, 16 hours with drug; read-out: EC50 (nM) Range
row,SMILES,EC50 [nM]
1,NCC[C@H]1COc2ccccc2[C@]12SC(c1cc(F)ccc1F)=NN2C(=O)CF [compound 2001],≤ 500
2,NCC[C@@H]1COc2ccccc2[C@@]12SC(c1cc(F)ccc1F)=NN2C(=O)CF [compound 2002],≤ 500
